# Test results published in patent US5204343A, “5H-benzodiazepin derivative” (Egis Gyogyszergyar, priority 1990, dated 1993).
# Entries after “also recorded” stand apart in the source; their conditions may differ.
# Tests used:
# [1] = system: mice; experiment: Antiaggressive effect on mice ("fighting behaviour" test of Tedeschi et al.); assay type: in vivo; details: Mus musculus, confidence limit in separate column
# Text: The antiaggressive effect was examined by the method of Tedeschi et al. (the so-called "fighting behaviour" test) [J. Pharm. Exp. Ther. 25, 28 (1959)].
# [2] = system: mice; experiment: Behaviour test on mice (method of Irwin); assay type: in vivo
# Text: The effects of the compound of formula (I) and the reference compound (girisopam) were examined by the method of Irwin [Psychopharmacol. 13, 222 (1968)].
# [3] = Anxiolytic, antiaggressive and antidepressant effects, overall statement; assay type: in vivo; details: vs girisopam
# [4] = system: rats; experiment: Anxiolytic effect on rats ("lick-conflict" test of Vogel); assay type: in vivo; details: for Numbers of shocks tolerated: 50 mg/kg i.p., pretreatment 30 minutes, vehicle 5.7 ± 0.6 (formula (I) series), 5.1 ± 0.9 (girisopam series); for number of tolerated shocks, result in words: same dose (50 mg/kg i.p.)
# Experimental: The anxiolytic effect was investigated according to the so-called "lick-conflict" test of Vogel [Psychopharmacol. 21, 1 (1971)]. Time of pretreatment: 30 minutes.
# [5] = Acute toxicity, overall statement; assay type: in vivo; details: vs girisopam
# Experimental: (§1) The experiments were carried out on male mice belonging to the CFLP strain (body weight: 20-22 g) and on male rats belonging to the CFY strain. […] The LD50 values were determined with the aid of the method of Lichtfield and Wilcoxon [J. Pharmacol. Exp. Ther. 96, 99 (1949)]. The compounds were suspended in 2 to 5% Tween 80. The animals were treated in volumes of 0.1 ml/10 g (mice) and 0.5 ml/100 g (rats).
# [6] = Acute toxicity, mouse; set-up: species or system mouse (male, CFLP strain); details: in vivo, 14 days observation
# Experimental: as §1
# [7] = Acute toxicity, rat; set-up: species or system rat (male, CFY strain); details: in vivo, ip, 14 days observation
# Experimental: as §1
# [8] = Pharmacological experiments, overall (spectrum, potency, therapeutical index); assay type: in vivo; details: vs girisopam
# [9] = system: mice; experiment: Narcosis potentiating effect on mice (hexobarbital-Na); assay type: in vivo; details: for Prolongation of narcosis time: hexobarbital-Na 50 mg/kg i.v.
# Experimental: The prolongation of the narcosis time was related to the sleeping time of the control group treated with a 50 mg/kg i.v. dose of hexobarbital-Na. The test compound was administered […].
# [10] = Muscle relaxant and anticonvulsive effects; details: in vivo
# [11] = vs Grandaxin (tofisopam); cited from earlier work
Compound,ED50 [1],spontaneous motor activity (SMA) after 60 minutes ([2]; 100 mg/kg i.p.),spontaneous motor activity (SMA) after 120 minutes ([2]; 100 mg/kg i.p.),spontaneous motor activity (SMA) after 180 minutes ([2]; 100 mg/kg i.p.),spontaneous motor activity (SMA) after 60 minutes ([2]; 200 mg/kg p.o.),spontaneous motor activity (SMA) after 120 minutes ([2]; 200 mg/kg p.o.),spontaneous motor activity (SMA) after 180 minutes ([2]; 200 mg/kg p.o.),Numbers of shocks tolerated [4],"number of tolerated shocks, result in words [4]",LD50 at 336 h ([6]; ip),LD50 at 336 h ([6]; po),LD50 at 336 h [7],Prolongation of narcosis time ([9]; 25 mg/kg p.o.),Prolongation of narcosis time ([9]; 50 mg/kg p.o.),other results
"COc1cc2c(cc1OC)C(c1cccc(Cl)c1)=NN=C(CO)C2 [Compound of formula (I), 1-(3-chlorophenyl)-4-hydroxymethyl-7,8-dimethoxy-5H-2,3-benzodiazepine]",13.8 mg/kg,SMA.dwnarw.,SMA.dwnarw.,SMA.dwnarw.,SMA.dwnarw.,SMA.dwnarw.,SMA.dwnarw.,13.8 ± 3.7,significant increase on the number of tolerated shocks,1310 mg/kg,> 2000 mg/kg,> 1500 mg/kg,232%,444%,"decrease of spontaneous motor activity, compared with reference compound ([2]; mice, vs girisopam): decreases the spontaneous motor activity on mice to the same degree as the reference compound; anxiolytic, antiaggressive and antidepressant effects [3]: as strong anxiolytic, antiaggressive and antidepressant effects as girisopam; acute toxicity compared with reference compound [5]: considerably more favourable on both kinds of animals than that of the reference compound; also recorded: their acute toxicity is superior; spectrum of activity and potency [8]: as favourable as those of the reference compound (girisopam); therapeutical index compared with reference compound [8]: more favourable than the reference compound; Prolongation of narcosis time ([9]; 12.5 mg/kg p.o.): 145%; narcosis potentiating activity compared with reference compound ([9]; p.o. doses 25 mg/kg and 50 mg/kg, vs girisopam): practically as significant as that of the reference compound (girisopam) or even superior; muscle relaxant and anticonvulsive effects [10]: do not show muscle relaxant and anticonvulsive effects"
"COc1cc2c(cc1OC)C(c1cccc(Cl)c1)=NN=C(C)C2 [Girisopam, 1-(3-chlorophenyl)-4-methyl-7,8-dimethoxy-5H-2,3-benzodiazepine, reference compound]",16 mg/kg,SMA.dwnarw.,SMA.dwnarw.,SMA.dwnarw.,SMA.dwnarw.,SMA.dwnarw.,SMA.dwnarw.,19.0 ± 2.3,significant increase on the number of tolerated shocks,330 mg/kg,1250 mg/kg,670 mg/kg,305%,392%,effectiveness compared with Grandaxin [11]: five times more effective than the latter
